# Reference: paper PMC6280375 (The Journal of Venomous Animals and Toxins Including …, 2018)
# Test system: BjussuLAAO-II
# Details: read-out: Km (mM) / Mean ± SD; 0.1 M HEPES pH 7, 45 °C, 2 mM OPD, 1 U/mL HRP
row,SMILES,Km
1,CC[C@H](C)[C@H](N)C(=O)O [Ile],2 ± 0.1 mM
2,NC(=O)CC[C@H](N)C(=O)O [Gln],3.2 ± 0.3 mM
3,CSCC[C@H](N)C(=O)O [Met],0.6 ± 0.1 mM
4,CC(C)C[C@H](N)C(=O)O [Leu],0.3 mM
5,N[C@@H](Cc1ccccc1)C(=O)O [Phe],0.1 mM
6,N[C@@H](Cc1cnc[nH]1)C(=O)O [His],14.1 ± 1.9 mM
7,N[C@@H](Cc1ccc(O)cc1)C(=O)O [Tyr],1.1 ± 0.1 mM
